Measurements from the NIST ThermoML archive (doi:10.1016/j.jct.2016.02.001).

Experiment: mn = molality of the nth substance listed, in mol/kg
Details: for surface tension liquid-gas: Maximal bubble pressure; for mass density: 100 kPa, Liquid, Vibrating tube method

CC(=O)[O-].CCCCCCn1cc[n+](C)c1 [3-hexyl-1-methylimidazolium acetate] + O
Details	mass density [kg/m3]	surface tension liquid-gas [mN/m]
288.15 K, m1 = 0.0117	1000.09	73
288.15 K, m1 = 0.0162	1000.19	72.9
288.15 K, m1 = 0.0285	1000.4	72.7
288.15 K, m1 = 0.044	1000.58	72.2
288.15 K, m1 = 0.1102	1001.44	70.4
288.15 K, m1 = 0.1674	1002.13	68.9
288.15 K, m1 = 0.2233	1002.92	67.6
288.15 K, m1 = 0.2797	1003.61	66.3
288.15 K, m1 = 0.3357	1004.39	65.1
288.15 K, m1 = 0.3914	1005.11	63.7
288.15 K, m1 = 0.4475	1005.8	62.4
288.15 K, m1 = 0.5029	1006.52	61.4
293.15 K, m1 = 0.0117	999.03	72.3
293.15 K, m1 = 0.0162	999.15	72.2
293.15 K, m1 = 0.0285	999.32	71.9
293.15 K, m1 = 0.044	999.53	71.3
293.15 K, m1 = 0.1102	1000.29	69.6
293.15 K, m1 = 0.1674	1000.95	68.2
293.15 K, m1 = 0.2233	1001.64	67
293.15 K, m1 = 0.2797	1002.33	65.6
293.15 K, m1 = 0.3357	1003	64.4
293.15 K, m1 = 0.3914	1003.71	63
293.15 K, m1 = 0.4475	1004.46	61.7
293.15 K, m1 = 0.5029	1005.19	60.7
298.15 K, m1 = 0.0117	997.74	71.6
298.15 K, m1 = 0.0162	997.89	71.4
298.15 K, m1 = 0.0285	998.01	71.1
298.15 K, m1 = 0.044	998.25	70.6
298.15 K, m1 = 0.1102	998.91	69
298.15 K, m1 = 0.1674	999.59	67.5
298.15 K, m1 = 0.2233	1000.3	66.2
298.15 K, m1 = 0.2797	1001	64.8
298.15 K, m1 = 0.3357	1001.66	63.7
298.15 K, m1 = 0.3914	1002.34	62.4
298.15 K, m1 = 0.4475	1003.01	61.1
298.15 K, m1 = 0.5029	1003.64	60.2
303.15 K, m1 = 0.0117	996.24	70.7
303.15 K, m1 = 0.0162	996.35	70.6
303.15 K, m1 = 0.0285	996.49	70.3
303.15 K, m1 = 0.044	996.69	69.7
303.15 K, m1 = 0.1102	997.44	68.1
303.15 K, m1 = 0.1674	998.06	66.8
303.15 K, m1 = 0.2233	998.79	65.6
303.15 K, m1 = 0.2797	999.48	64.1
303.15 K, m1 = 0.3357	1000.14	62.9
303.15 K, m1 = 0.3914	1000.78	61.7
303.15 K, m1 = 0.4475	1001.42	60.5
303.15 K, m1 = 0.5029	1002.04	59.6
308.15 K, m1 = 0.0117	994.58	69.8
308.15 K, m1 = 0.0162	994.69	69.7
308.15 K, m1 = 0.0285	994.81	69.4
308.15 K, m1 = 0.044	994.99	68.9
308.15 K, m1 = 0.1102	995.81	67.5
308.15 K, m1 = 0.1674	996.43	65.9
308.15 K, m1 = 0.2233	997.08	64.7
308.15 K, m1 = 0.2797	997.72	63.4
308.15 K, m1 = 0.3357	998.39	62.2
308.15 K, m1 = 0.3914	999.02	61.1
308.15 K, m1 = 0.4475	999.65	59.9
308.15 K, m1 = 0.5029	1000.24	58.9
313.15 K, m1 = 0.0117	992.75	69
313.15 K, m1 = 0.0162	992.83	68.9
313.15 K, m1 = 0.0285	992.94	68.7
313.15 K, m1 = 0.044	993.11	68.2
313.15 K, m1 = 0.1102	993.86	66.6
313.15 K, m1 = 0.1674	994.56	65.3
313.15 K, m1 = 0.2233	995.21	64.1
313.15 K, m1 = 0.2797	995.84	62.8
313.15 K, m1 = 0.3357	996.49	61.7
313.15 K, m1 = 0.3914	997.12	60.5
313.15 K, m1 = 0.4475	997.73	59.2
313.15 K, m1 = 0.5029	998.32	58.2
318.15 K, m1 = 0.0117	990.75	68.2
318.15 K, m1 = 0.0162	990.81	68.1
318.15 K, m1 = 0.0285	990.95	67.9
318.15 K, m1 = 0.044	991.1	67.4
318.15 K, m1 = 0.1102	991.84	65.8
318.15 K, m1 = 0.1674	992.43	64.4
318.15 K, m1 = 0.2233	993.11	63.3
318.15 K, m1 = 0.2797	993.76	62.1
318.15 K, m1 = 0.3357	994.39	61
318.15 K, m1 = 0.3914	995	59.7
318.15 K, m1 = 0.4475	995.59	58.5
318.15 K, m1 = 0.5029	996.16	57.7
